Test results from ChEMBL document CHEMBL1201862, “PubChem BioAssay data set” (2004).
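Tested at 5 concentrations; 48 h exposure; 96-well plates; endpoints linearly interpolated, else capped at highest concentration. GI50 = concentration required for 50% inhibition of growth.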 The source made the active and inactive calls. Cut-off read from the data, not from the text of the source: active = GI50 up to about 1.1 µM and inactive = higher.

What was measured:
Assay in all cases: NCI-60 cell line screen, 48 h
LXFL 529 = system: LXFL 529
M19-MEL = system: M19-MEL
KM-20L2 = system: KM-20L2
XF498 = system: XF498
DLD-1 = system: DLD-1
HOP-18 = system: HOP-18
DMS-114 = system: DMS-114
DMS-273 = system: DMS-273
RXF 631 = system: RXF 631

Row | Compound | GI50 (LXFL 529) | GI50 (M19-MEL) | GI50 (KM-20L2) | GI50 (XF498) | GI50 (DLD-1) | GI50 (HOP-18) | GI50 (DMS-114) | GI50 (DMS-273) | GI50 (RXF 631)
1 | COC(=O)N/N=C(\C(=O)Nc1cccc([N+](=O)[O-])c1)c1nc2ccc([N+](=O)[O-])cc2nc1O | 27.7 µM (inactive) | 74.3 µM (inactive) | 13.9 µM (inactive) | 0.494 µM (active) | > 100 µM (inactive) | > 100 µM (inactive) | 8.09 µM (inactive) |  | 
2 | COP(=O)(OC)C(NC(=O)C(F)(F)F)(c1ccccc1)C(F)(F)F (stereo not drawn) |  | > 100 µM (inactive) | > 100 µM (inactive) | > 100 µM (inactive) | > 100 µM (inactive) | > 100 µM (inactive) | > 100 µM (inactive) | > 100 µM (inactive) | 
3 | O=[N+]([O-])c1cnn(C2=CNc3ccccc3N=C2)c1 |  | > 100 µM (inactive) | > 100 µM (inactive) | > 100 µM (inactive) | > 100 µM (inactive) | > 100 µM (inactive) |  | > 100 µM (inactive) | > 100 µM (inactive)
4 | O=C1CC[C@@H](S(=O)(=O)c2ccccc2)[C@@H](/C=C/c2ccccc2)O1 | > 100 µM (inactive) | > 100 µM (inactive) | > 100 µM (inactive) | < 0.01 µM (active) |  | > 100 µM (inactive) | > 100 µM (inactive) |  | 
5 | Cc1ccc2c(ccc(/C=C\c3cc(C)c4cccnc4c3O)[n+]2C)c1 | 0.3 µM (active) |  | 2.84 µM (inactive) |  | 0.849 µM (active) | 1.81 µM (inactive) | 0.811 µM (active) | 0.352 µM (active) | 
6 | COC(=O)C1=C(C[S+]([O-])c2ccc([N+](=O)[O-])cc2[N+](=O)[O-])C2C=CC1C2 (stereo not drawn) | 22.2 µM (inactive) | 20.1 µM (inactive) | 22 µM (inactive) | 28.5 µM (inactive) | 19.1 µM (inactive) | 29.4 µM (inactive) | 23.4 µM (inactive) | 20.2 µM (inactive) | 17.8 µM (inactive)
7 | N#CC(C#N)=c1ccc(=C2NCC3CCCN23)cc1 (stereo not drawn) | > 100 µM (inactive) | > 100 µM (inactive) | > 100 µM (inactive) |  |  | > 100 µM (inactive) | > 100 µM (inactive) | > 100 µM (inactive) | 
8 | CC(=O)NC1=C(Nc2ccc(C)cc2)C(=O)c2ccccc2C1=O | 23.6 µM (inactive) | 8.43 µM (inactive) | 24.1 µM (inactive) | 24.9 µM (inactive) | 19.7 µM (inactive) | 12.2 µM (inactive) | 14.5 µM (inactive) | 16.5 µM (inactive) | 
9 | COC1O[C@@H]2COC(C)(C)O[C@@H]2C(=O)N1Nc1ccc([N+](=O)[O-])cc1 (stereo partly drawn) | 55.1 µM (inactive) | > 100 µM (inactive) | > 100 µM (inactive) | > 100 µM (inactive) | 35.1 µM (inactive) | > 100 µM (inactive) |  | > 100 µM (inactive) | 
10 | COC(=O)[C@@]12C3=NO[C@]1(C(=O)OC)C(O[Si](C)(C)C(C)(C)C)C1OC(C)(C)OC1[C@@H]2[C@@H](OCc1ccccc1)CC3 (stereo partly drawn) | 46.3 µM (inactive) | > 100 µM (inactive) | > 100 µM (inactive) |  | > 100 µM (inactive) | > 100 µM (inactive) | 49.5 µM (inactive) | 51.4 µM (inactive) | 
11 | CC(C)(O)C(O)COc1c2c(cc3oc(=O)ccc13)OCO2 (stereo not drawn) | > 100 µM (inactive) | > 100 µM (inactive) | > 100 µM (inactive) | > 100 µM (inactive) | > 100 µM (inactive) | > 100 µM (inactive) | > 100 µM (inactive) | > 100 µM (inactive) | 
